Measurements: patent US20140349941A1, “AROMATIC-CATIONIC PEPTIDES AND USES OF SAME” (Cornell University, priority 2011, published 2014)

Assays:
cyt c = cyt c (Homo sapiens, UniProt P99999); test: Cyclic voltammetry of cyt c in solution
[1] = tested on: isolated rat kidney mitochondria; test: O2 consumption of isolated rat kidney mitochondria (Oxygraph); type: biochemical
Procedure: Fresh mitochondria were isolated from rat kidney as described previously. Electron flux was measured by O2 consumption (Oxygraph Clark electrode) as previously described using different substrates for C1 (glutamate/malate), C2 (succinate), and C3 (TMPD/ascorbate). Assays were carried out under low substrate conditions in order to avoid saturating the enzyme reactions. ATP production in isolated mitochondria was determined kinetically using the luciferase method (Biotherma) in a 96-well luminescence plate reader (Molecular Devices). The initial maximal rate for ATP synthesis was determined over the first minute.
Oxygen consumption of isolated rat kidney mitochondria was determined using the Oxygraph (FIG. 5). Rates of respiration were measured in the presence of different concentrations of SS-31 in state 2 (400 μM ADP only), state 3 (400 μM ADP and 500 μM substrates) and state 4 (substrates only). All experiments were done in triplicate with n=4-7.
SS-20 or SS-31 was added at 100 μM concentrations to isolated mitochondria in respiration buffer containing 0.5 mM succinate (complex II substrate) and 400 μM ADP. Similar increases in O2 consumption were observed when low concentrations of complex I substrates (glutamate/malate) were used (data not shown).
SS-20 or SS-31 was added at 10 μM or 100 μM concentrations to isolated mitochondria in respiration buffer containing glutamate/malate (complex I substrate), 0.5 mM succinate (complex II substrate) or 3 μM TMPD/1 mM ascorbate (direct reductant of cyt C). 400 μM ADP was added to initiate State 3 respiration.

[2] = tested on: cyt c-depleted mitoplasts; test: Respiration in cytochrome c-depleted mitoplasts; type: biochemical, rat
Procedure: Rates of respiration were measured in the presence of 500 μM Succinate with or without 100 μM SS-31. The experiment was carried out in triplicate, with n=3.
A model of cyt C tightly bound to mitochondrial cardiolipin was used to investigate interaction of SS-31 with cytochrome c-CL complex in mitochondria. After removal of outer membrane with digitonin, mitoplasts were washed with 120 mM KCl to remove all free and electrostatically associated cytochrome c, leaving only cytochrome c tightly bound to CL.

[3] = target: heme environment of cytochrome c (with CL) (Homo sapiens, UniProt P99999); test: Soret CD spectrum of cyt C in the presence of CL; type: binding; conditions: cyt C 10 μM; CL 30 μg/ml; peptide 10 μM; 20 mM HEPES pH 7.5, 25° C.; FIG. 24
Chain of heme environment of cytochrome c (with CL) (P99999 2-105 limits assumed, species assumed): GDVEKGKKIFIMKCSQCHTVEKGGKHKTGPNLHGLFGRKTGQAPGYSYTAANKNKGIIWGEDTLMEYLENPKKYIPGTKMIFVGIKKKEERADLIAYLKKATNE
Procedure: Circular dichroism (CD) was carried out to examine the effects of the peptides on protecting the heme environment of cyt C from the acyl chain of CL. For heme proteins, the Soret CD spectrum is strictly correlated with the heme pocket conformation. In particular, the negative 416-420 nm Cotton effect is considered diagnostic of Fe(III)-Met80 coordination in native cyt C (Santucci and Ascoli, 1997). […] CD spectra were obtained using AVIV CD Spectrometer Model 410.
Changes in the Soret CD spectrum of cyt C (10 μM) were recorded in the absence (dotted line) and presence (dashed line) of 30 μg/ml CL, plus addition of different peptides (10 μM) (solid line) (FIG. 24). CD measurements were carried out using 20 mM HEPES, pH 7.5, at 25° C. and expressed as molar ellipticity (θ) (m Deg).

cytochrome c (with CL) = cytochrome c (with CL) (Homo sapiens, UniProt P99999); test: Cytochrome c reduction inhibited by CL; type: biochemical
Chain of cytochrome c (with CL) (P99999 2-105 limits assumed, species assumed): as above
Procedure: Cytochrome c is a carrier of electrons between respiratory complex III and IV in mitochondria. Cytochrome c is reduced (Fe^2+) after it accepts an electron from cytochrome c reductase, and it is then oxidized to Fe^3+ by cytochrome c oxidase.
Reduction of cytochrome c (20 μM) was induced by the addition of glutathione (500 μM) in the absence or presence of CL (100 μg/ml) (FIG. 25A). Reduction of cytochrome c was monitored by absorbance at 550 nm using a 96-well UV-VIS plate reader (Molecular Devices). Addition of CL decreased the rate of cytochrome c reduction by half.

[4] = target: T1, horse radish peroxidase (HRP) (Armoracia rusticana, UniProt P00433); test: HRP activity (amplex red); type: biochemical; conditions: data not shown
T1 sequence (P00433 31-338 limits assumed): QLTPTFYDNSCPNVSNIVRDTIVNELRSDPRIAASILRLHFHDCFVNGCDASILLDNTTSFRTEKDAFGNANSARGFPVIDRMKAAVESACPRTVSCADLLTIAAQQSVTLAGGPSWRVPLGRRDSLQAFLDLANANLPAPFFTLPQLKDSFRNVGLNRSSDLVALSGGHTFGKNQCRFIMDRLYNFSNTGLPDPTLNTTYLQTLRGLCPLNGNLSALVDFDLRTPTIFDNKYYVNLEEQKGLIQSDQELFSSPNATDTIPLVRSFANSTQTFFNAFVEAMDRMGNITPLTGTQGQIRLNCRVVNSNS
Text: The six coordination of the heme in cytochrome c prevents direct interaction of H2O2 with the catalytic metal site, and native cytochrome c in solution is a poor peroxidase. Upon interaction with CL, cytochrome c undergoes a structural change with rupture of the Fe-Met80 coordination. […] The mechanism of action of cytochrome c peroxidase is similar to that of other peroxidases, such as horse radish peroxidase (HRP). Thus it is possible to use the amplex red-HRP reaction to investigate cytochrome c peroxidase activity. In the presence of peroxidase, amplex red (AR) reacts with H2O2 to form the red-fluorescent oxidation product, resorufin (Ex/Em=571/585).

Chain of cyt c (P99999 2-105 limits assumed, species assumed): as the sequence (P99999 2-105 limits assumed, species assumed) above

D-Arg-2′6′Dmt-Lys-Phe-NH2 [SS-31]
current for reduction and oxidation processes of cyt c (cyt c; Au working electrode, Ag/AgCl reference, FIG. 2 upper panel): increased current for both reduction and oxidation processes
reduction/oxidation potentials of cyt c (cyt c; FIG. 2 upper panel): does not alter reduction/oxidation potentials
increase of current (electron diffusion rate) (cyt c; cyt c:SS31=1:2, TBE buffer, FIG. 2 lower panel): ~200%
O2 consumption in state 3 respiration ([1]; glutamate/malate, succinate or TMPD/ascorbate, 400 μM ADP, FIG. 26): increased O2 consumption in state 3 respiration
electron flux, as measured by O2 consumption ([1]; peptide 10 μM or 100 μM, complex I, complex II substrate or TMPD/ascorbate, FIG. 26): can promote electron flux
electron flux, as measured by O2 consumption ([1]; peptide 100 μM, 0.5 mM succinate, 400 μM ADP, FIG. 14): can promote electron flux
electron transfer to oxygen (rates of respiration) ([1]; state 2, state 3 and state 4, different concentrations, FIG. 5): promoted electron transfer to oxygen without uncoupling mitochondria
mitochondrial O2 consumption (respiration) ([2]; 500 μM succinate, 100 μM peptide, once-frozen rat kidney mitochondria, FIG. 7): Enhances Respiration in Cytochrome C-Depleted Mitoplasts
complex II respiration in mitoplasts ([2]; cytochrome c tightly bound to CL, digitonin, 120 mM KCl wash, dose-dependent, FIG. 28): enhances complex II respiration
disappearance of the negative Cotton effect caused by CL (heme environment of cytochrome c) [3]: Protect the Heme Environment of Cytochrome C from the Acyl Chain of CL
inhibitory effect of CL on kinetics of cytochrome c reduction (cytochrome c (with CL); 500 μM GSH or 50 μM ascorbate, FIG. 25B): dose-dependently overcame the inhibitory effect of CL
inhibitory action of CL on rate of cytochrome c reduction (cytochrome c (with CL); cytochrome c 20 μM, glutathione 500 μM, CL 100 μg/ml, peptide 20, 40 or 100 μM, FIG. 25A): dose-dependently prevented the inhibitory action of CL
HRP activity [4]: had no effect on HRP activity
